pIC50: −log10 of the molar value. Where “and” joins values, the source holds several entries; their conditions need not be identical. Equal entries are not always repeated.
Experiments:
[1] = Stability in cryopreserved hepatocytes, mouse; assay type: in vitro ADME; settings: for Compound Remaining (% of 0 min): Hepatocyte Stability Mouse, single replicates
Experimental: The final incubation volume was 500 μL. Two control compounds (verapamil and donepezil) were included for each microsomal species, along with the appropriate vehicle control. The reactions were terminated by transferring 50 μL of incubate to 100 μL methanol containing an internal standard (metoprolol) at appropriate time points (0, 10, 20, 40, 60, and 120 min for the test compound and 0, 5, 10, 20, 40, and 60 min for the control compounds). The termination plates were centrifuged at 4000 x g at 4°C for 30 min to precipitate the protein. The supernatants were then collected for analysis, and LC-MS/MS was used for detection purposes. The system consisted of an Acquity™ Binary Solvent Manager, Acquity™ 4-position heated column manager, 2777 Ultra High Pressure Autosampler, and a Xevo-TQ MS triple quadrupole mass spectrometer (Waters Ltd., Herts, UK). This process was carried out twice.

[2] = molecular target: BSEP (Homo sapiens, UniProt O95342); assay: biochemical
Sequence of BSEP (O95342 whole entry): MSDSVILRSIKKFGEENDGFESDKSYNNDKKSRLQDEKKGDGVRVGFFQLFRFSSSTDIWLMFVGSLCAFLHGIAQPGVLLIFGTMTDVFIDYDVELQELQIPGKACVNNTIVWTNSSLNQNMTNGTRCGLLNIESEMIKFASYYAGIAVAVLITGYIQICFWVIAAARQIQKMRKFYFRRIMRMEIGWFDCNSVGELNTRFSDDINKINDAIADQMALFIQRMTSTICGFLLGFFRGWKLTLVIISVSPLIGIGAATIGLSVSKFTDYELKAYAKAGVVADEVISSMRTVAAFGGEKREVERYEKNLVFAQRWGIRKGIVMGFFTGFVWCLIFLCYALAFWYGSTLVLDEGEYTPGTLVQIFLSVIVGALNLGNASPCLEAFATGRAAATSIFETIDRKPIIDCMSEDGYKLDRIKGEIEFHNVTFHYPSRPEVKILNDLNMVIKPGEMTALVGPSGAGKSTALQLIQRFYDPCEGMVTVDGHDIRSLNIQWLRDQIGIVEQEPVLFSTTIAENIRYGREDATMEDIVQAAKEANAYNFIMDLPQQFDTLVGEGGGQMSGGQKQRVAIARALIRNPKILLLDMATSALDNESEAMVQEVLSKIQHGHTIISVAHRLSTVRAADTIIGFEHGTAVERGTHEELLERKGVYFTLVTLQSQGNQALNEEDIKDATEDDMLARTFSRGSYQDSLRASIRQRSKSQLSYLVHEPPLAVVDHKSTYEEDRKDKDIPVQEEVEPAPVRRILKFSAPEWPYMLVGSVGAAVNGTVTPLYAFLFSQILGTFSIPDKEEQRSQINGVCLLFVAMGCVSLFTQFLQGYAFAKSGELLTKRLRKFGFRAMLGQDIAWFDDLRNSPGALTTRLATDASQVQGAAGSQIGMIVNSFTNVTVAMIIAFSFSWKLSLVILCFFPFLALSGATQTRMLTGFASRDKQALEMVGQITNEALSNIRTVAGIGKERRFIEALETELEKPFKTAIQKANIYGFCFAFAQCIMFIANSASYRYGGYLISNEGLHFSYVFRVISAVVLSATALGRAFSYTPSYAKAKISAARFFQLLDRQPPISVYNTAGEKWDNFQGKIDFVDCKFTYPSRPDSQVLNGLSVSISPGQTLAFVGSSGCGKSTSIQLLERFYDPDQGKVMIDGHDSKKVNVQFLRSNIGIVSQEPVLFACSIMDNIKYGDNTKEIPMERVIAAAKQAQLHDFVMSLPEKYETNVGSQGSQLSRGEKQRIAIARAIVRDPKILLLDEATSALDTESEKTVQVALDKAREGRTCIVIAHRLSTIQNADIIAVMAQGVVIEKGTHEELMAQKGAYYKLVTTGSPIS
Experimental: In the vesicular transport inhibition assay (for BSEP, MRP) compounds were incubated with membrane vesicle preparations and the probe substrate. Incubations were carried out in the presence of 4 mM ATP or AMP to distinguish between transporter-mediated uptake and passive diffusion into the vesicles. For MRP2 and MRP3, reactions were carried out in the presence of 2 mM glutathione. Compounds were added to the reaction mixture in 0.75 μL of solvent (1% of the final incubation volume). […] Reactions were initiated by the addition of 25 μL of 12 mM MgATP (or 12 mM AMP in assay buffer as a background control) and preincubated separately. Reactions were quenched by the addition of 200 μL of ice-cold washing buffer and immediate filtration via glass fiber filters mounted on a 96-well plate (filter plate). The filters were washed (5 × 200 μL of ice-cold washing buffer), dried, and the amount of substrate inside the filtered vesicles was determined by liquid scintillation counting.

[3] = molecular target: T1, NTCP (Homo sapiens, UniProt Q14973); settings: read-out: Inhibition of NTCP, previously reported IC50; cited from earlier work
T1 construct: expressed in transfected cells; host or cells: HEK cells
T1 sequence (Q14973 1-349): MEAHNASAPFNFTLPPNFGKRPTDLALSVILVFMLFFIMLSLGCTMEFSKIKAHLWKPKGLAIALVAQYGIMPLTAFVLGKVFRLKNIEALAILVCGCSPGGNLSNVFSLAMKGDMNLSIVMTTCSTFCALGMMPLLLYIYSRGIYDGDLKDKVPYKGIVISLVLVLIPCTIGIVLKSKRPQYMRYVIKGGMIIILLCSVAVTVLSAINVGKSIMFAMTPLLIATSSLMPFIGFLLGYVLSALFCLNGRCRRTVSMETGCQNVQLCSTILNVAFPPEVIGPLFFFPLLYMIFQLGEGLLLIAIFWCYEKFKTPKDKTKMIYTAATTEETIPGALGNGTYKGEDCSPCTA

[4] = cryopreserved hepatocytes (suspension), Mouse (CD) hepatocytes, mean n = 2

In the case of `CC#C[C@@H](CC(=O)O)c1ccc(OCC(C)=C(C)C)cc1` [CPL207280], the “Compound Remaining (% of 0 min)” value ([1]; 0 min) was 100 % of 0 min, the “Compound Remaining (% of 0 min)” value ([1]; 10 min) was 92.6 % of 0 min and 92.7 % of 0 min and the “Compound Remaining (% of 0 min)” value ([1]; 20 min) was 92.0 % of 0 min and 89.0 % of 0 min. For the same compound, the “Compound Remaining (% of 0 min)” value ([1]; 40 min) was 86.8 % of 0 min and 80.9 % of 0 min, the “Compound Remaining (% of 0 min)” value ([1]; 60 min) was 79.1 % of 0 min and 85.2 % of 0 min and the “Compound Remaining (% of 0 min)” value ([1]; 120 min) was 81.9 % of 0 min and 77.1 % of 0 min. It also gave a half-life at 3 μM [1, 4] of 6.73 h and a microsomal CLint at 3 μM [1, 4] of 3.46 µL/min/mg.
In the case of `Cc1cc(OCCCS(C)(=O)=O)cc(C)c1-c1cccc(COc2ccc3c(c2)OC[C@H]3CC(=O)O)c1` [TAK-875, fasiglifam, reference compound], the pIC50 [2] is listed as 4.33 and the pIC50 [3] is listed as 5.34.

— PMC8459971, “Evaluation of the hepatotoxicity of the novel GPR40 (FFAR1) agonist CPL207280 in the rat and monkey” (PLoS ONE, 2021)
